# According to patent US20070049564A1 (Wyeth, priority 2005, published 2007):
# Read-outs that look alike come from different tables or passages of the source.
# Experiments:
# [1] = tested on: E. coli GC 2203; test: MIC, broth microdilution; conditions: Escherichia coli
# [2] = tested on: S. aureus GC 1131; test: MIC, broth microdilution; conditions: Staphylococcus aureus
# [3] = tested on: S. pneumoniae* GC 4465; test: MIC, broth microdilution; conditions: Streptococcus pneumoniae
# [4] = tested on: E. coli GC 6465; test: MIC, broth microdilution; conditions: Escherichia coli
# [5] = tested on: E. coli GC 4560; test: MIC, broth microdilution; conditions: Escherichia coli
# [6] = tested on: Staph.; test: Range of MIC for Staph. strains, including MRSA; conditions: Staphylococcus aureus, MRSA
# [7] = tested on: E. faecalis GC 4555; test: MIC, broth microdilution; conditions: Enterococcus faecalis
# [8] = tested on: E. coli GC 2231; test: MIC, broth microdilution; conditions: Escherichia coli
# [9] = tested on: S. epidermidis GC 4935; test: MIC, broth microdilution; conditions: Staphylococcus epidermidis
# [10] = tested on: S. aureus GC 1079; test: MIC, broth microdilution; conditions: Staphylococcus aureus
# [11] = tested on: S. aureus GC 6466; test: MIC, broth microdilution; conditions: Staphylococcus aureus
# [12] = tested on: S. aureus GC 6467; test: MIC, broth microdilution; conditions: Staphylococcus aureus
# [13] = tested on: E. coli GC 2234; test: MIC, broth microdilution; conditions: Escherichia coli
# [14] = tested on: E. faecium GC 4556; test: MIC, broth microdilution; conditions: Enterococcus faecium
# [15] = tested on: E. coli GC 2235; test: MIC, broth microdilution; conditions: Escherichia coli
# [16] = tested on: S. typhimurium GC 2172; test: MIC, broth microdilution; conditions: Salmonella enterica, TYPHIMURIUM
# [17] = tested on: E. coli GC 2236; test: MIC, broth microdilution; conditions: Escherichia coli
# [18] = tested on: E. coli GC 2233; test: MIC, broth microdilution; conditions: Escherichia coli
# [19] = tested on: E. coli GC 2272; test: MIC, broth microdilution; conditions: Escherichia coli
# [20] = tested on: E. faecalis GC 2267; test: MIC, broth microdilution; conditions: Enterococcus faecalis
# [21] = GC2203, read-out: MINIMAL INHIBITORY CONCENTRATION MIC, pre-incubated in Mouse Serum
# [22] = GC2203, read-out: MINIMAL INHIBITORY CONCENTRATION MIC, pre-incubated in Water
# [23] = GC1131, read-out: MINIMAL INHIBITORY CONCENTRATION MIC, pre-incubated in Mouse Serum
# [24] = GC1131, read-out: MINIMAL INHIBITORY CONCENTRATION MIC, pre-incubated in Water
# [25] = read-out: MINIMAL INHIBITORY CONCENTRATION MIC, pre-incubated in Mouse Serum
# [26] = read-out: MINIMAL INHIBITORY CONCENTRATION MIC, pre-incubated in Water
# [27] = GC6465, read-out: MINIMAL INHIBITORY CONCENTRATION MIC, pre-incubated in Mouse Serum
# [28] = GC6465, read-out: MINIMAL INHIBITORY CONCENTRATION MIC, pre-incubated in Water
# [29] = GC4560, read-out: MINIMAL INHIBITORY CONCENTRATION MIC, pre-incubated in Mouse Serum
# [30] = GC4560, read-out: MINIMAL INHIBITORY CONCENTRATION MIC, pre-incubated in Water
# [31] = read-out: Range of MIC, Staph (Mouse Serum)
# [32] = read-out: Range of MIC, Staph (Water)
# [33] = read-out: Range of MIC, Staph. (mouse serum)
# [34] = read-out: Range of MIC, Staph. (water)
# [35] = GC4555, read-out: MINIMAL INHIBITORY CONCENTRATION MIC, pre-incubated in Mouse Serum
# [36] = GC4555, read-out: MINIMAL INHIBITORY CONCENTRATION MIC, pre-incubated in Water
# [37] = GC2231, read-out: MINIMAL INHIBITORY CONCENTRATION MIC, pre-incubated in Mouse Serum
# [38] = GC2231, read-out: MINIMAL INHIBITORY CONCENTRATION MIC, pre-incubated in Water
# [39] = GC4935, read-out: MINIMAL INHIBITORY CONCENTRATION MIC, pre-incubated in Mouse Serum
# [40] = GC4935, read-out: MINIMAL INHIBITORY CONCENTRATION MIC, pre-incubated in Water
# [41] = GC1079, read-out: MINIMAL INHIBITORY CONCENTRATION MIC, pre-incubated in Mouse Serum
# [42] = GC1079, read-out: MINIMAL INHIBITORY CONCENTRATION MIC, pre-incubated in Water
# [43] = GC6466, read-out: MINIMAL INHIBITORY CONCENTRATION MIC, pre-incubated in Mouse Serum
# [44] = GC6466, read-out: MINIMAL INHIBITORY CONCENTRATION MIC, pre-incubated in Water
# [45] = GC6467, read-out: MINIMAL INHIBITORY CONCENTRATION MIC, pre-incubated in Mouse Serum
# [46] = GC6467, read-out: MINIMAL INHIBITORY CONCENTRATION MIC, pre-incubated in Water
# [47] = GC2234, read-out: MINIMAL INHIBITORY CONCENTRATION MIC, pre-incubated in Mouse Serum
# [48] = GC2234, read-out: MINIMAL INHIBITORY CONCENTRATION MIC, pre-incubated in Water
# [49] = GC4556, read-out: MINIMAL INHIBITORY CONCENTRATION MIC, pre-incubated in Mouse Serum
# [50] = GC4556, read-out: MINIMAL INHIBITORY CONCENTRATION MIC, pre-incubated in Water
# [51] = GC2235, read-out: MINIMAL INHIBITORY CONCENTRATION MIC, pre-incubated in Mouse Serum
# [52] = GC2235, read-out: MINIMAL INHIBITORY CONCENTRATION MIC, pre-incubated in Water
# [53] = GC2236, read-out: MINIMAL INHIBITORY CONCENTRATION MIC, pre-incubated in Mouse Serum
# [54] = GC2236, read-out: MINIMAL INHIBITORY CONCENTRATION MIC, pre-incubated in Water
# [55] = GC2233, read-out: MINIMAL INHIBITORY CONCENTRATION MIC, pre-incubated in Mouse Serum
# [56] = GC2233, read-out: MINIMAL INHIBITORY CONCENTRATION MIC, pre-incubated in Water
# [57] = GC2272, read-out: MINIMAL INHIBITORY CONCENTRATION MIC, pre-incubated in Mouse Serum
# [58] = GC2272, read-out: MINIMAL INHIBITORY CONCENTRATION MIC, pre-incubated in Water
# [59] = GC2267, read-out: MINIMAL INHIBITORY CONCENTRATION MIC, pre-incubated in Mouse Serum
# [60] = GC2267, read-out: MINIMAL INHIBITORY CONCENTRATION MIC, pre-incubated in Water
structure (smiles),measurement,setting,value
"CCCN(CC(=O)Nc1cc(N(C)C)c2c(c1O)C(=O)C1=C(O)[C@]3(O)C(=O)C(C(N)=O)=C(O)[C@@H](N(C)C)[C@@H]3C[C@@H]1C2)C(=O)OCOC(=O)c1cccs1 [Example 25, ({[(2-{[(5aR,6aS,7S,10aS)-9-(aminocarbonyl)-4,7-bis(dimethylamino)-1,8,10a,11-tetrahydroxy-10,12-dioxo-5,5a,6,6a,7,10,10a,12-octahydrotetracen-2-yl]amino}-2-oxoethyl)(propyl)amino]carbonyl}oxy)methyl thiophene-2-carboxylate]",MIC,[1]; [21],1 µg/mL
same,MIC,[1]; [22],> 64 µg/mL
same,MIC,[2]; [23],0.5 µg/mL
same,MIC,[2]; [24],0.5 µg/mL
same,MIC,[3]; [25],0.12 µg/mL
same,MIC,[3]; [26],0.25 µg/mL
same,MIC,[4]; [27],8 µg/mL
same,MIC,[4]; [28],> 64 µg/mL
same,MIC,[5]; [29],0.5 µg/mL
same,MIC,[5]; [30],2 µg/mL
same,MIC,[6]; [31],0.25 to 2 µg/mL
same,MIC,[6]; [32],0.5 to 4 µg/mL
same,MIC,[6]; [33],0.25 to 2 µg/mL
same,MIC,[6]; [34],0.5 to 4 µg/mL
same,MIC,[7]; [35],1 µg/mL
same,MIC,[7]; [36],2 µg/mL
same,MIC,[8]; [37],2 µg/mL
same,MIC,[8]; [38],> 64 µg/mL
same,MIC,[9]; [39],1 µg/mL
same,MIC,[9]; [40],2 µg/mL
same,MIC,[10]; [41],1 µg/mL
same,MIC,[10]; [42],2 µg/mL
same,MIC,[11]; [43],0.25 µg/mL
same,MIC,[11]; [44],0.25 µg/mL
same,MIC,[12]; [45],2 µg/mL
same,MIC,[12]; [46],2 µg/mL
same,MIC,[13]; [47],1 µg/mL
same,MIC,[13]; [48],> 64 µg/mL
same,MIC,[14]; [49],1 µg/mL
same,MIC,[14]; [50],4 µg/mL
same,MIC,[15]; [51],1 µg/mL
same,MIC,[15]; [52],32 µg/mL
same,MIC,[16]; [25],8 µg/mL
same,MIC,[16]; [26],> 64 µg/mL
same,MIC,[17]; [53],2 µg/mL
same,MIC,[17]; [54],64 µg/mL
same,MIC,[18]; [55],2 µg/mL
same,MIC,[18]; [56],32 µg/mL
same,MIC,[19]; [57],2 µg/mL
same,MIC,[19]; [58],64 µg/mL
same,MIC,[20]; [59],2 µg/mL
same,MIC,[20]; [60],4 µg/mL
"CCCN(CC(=O)Nc1cc(N(C)C)c2c(c1O)C(=O)C1=C(O)[C@]3(O)C(=O)C(C(N)=O)=C(O)[C@@H](N(C)C)[C@@H]3C[C@@H]1C2)C(=O)OCOC(=O)c1cc(C)cc(C)c1 [Example 26, ({[(2-{[(5aR,6aS,7S,10aS)-9-(aminocarbonyl)-4,7-bis(dimethylamino)-1,8,10a,11-tetrahydroxy-10,12-dioxo-5,5a,6,6a,7,10,10a,12-octahydrotetracen-2-yl]amino}-2-oxoethyl)(propyl)amino]carbonyl}oxy)methyl 3,5-dimethylbenzoate]",MIC,[1]; [21],1 µg/mL
same,MIC,[1]; [22],> 64 µg/mL
same,MIC,[2]; [23],0.5 µg/mL
same,MIC,[2]; [24],0.5 µg/mL
same,MIC,[3]; [25],0.25 µg/mL
same,MIC,[3]; [26],0.25 µg/mL
same,MIC,[4]; [27],8 µg/mL
same,MIC,[4]; [28],> 64 µg/mL
same,MIC,[5]; [29],0.5 µg/mL
same,MIC,[5]; [30],8 µg/mL
same,MIC,[6]; [31],0.25 to 1 µg/mL
same,MIC,[6]; [32],0.25 to 4 µg/mL
same,MIC,[6]; [33],0.25 to 1 µg/mL
same,MIC,[6]; [34],0.25 to 4 µg/mL
same,MIC,[7]; [35],1 µg/mL
same,MIC,[7]; [36],4 µg/mL
same,MIC,[8]; [37],4 µg/mL
same,MIC,[8]; [38],> 64 µg/mL
same,MIC,[9]; [39],1 µg/mL
same,MIC,[9]; [40],2 µg/mL
same,MIC,[10]; [41],1 µg/mL
same,MIC,[10]; [42],2 µg/mL
same,MIC,[11]; [43],0.25 µg/mL
same,MIC,[11]; [44],0.25 µg/mL
same,MIC,[12]; [45],1 µg/mL
same,MIC,[12]; [46],4 µg/mL
same,MIC,[13]; [47],1 µg/mL
same,MIC,[13]; [48],> 64 µg/mL
same,MIC,[14]; [49],1 µg/mL
same,MIC,[14]; [50],4 µg/mL
same,MIC,[15]; [51],1 µg/mL
same,MIC,[15]; [52],64 µg/mL
same,MIC,[16]; [25],16 µg/mL
same,MIC,[16]; [26],> 64 µg/mL
same,MIC,[17]; [53],2 µg/mL
same,MIC,[17]; [54],> 64 µg/mL
same,MIC,[18]; [55],2 µg/mL
same,MIC,[18]; [56],> 64 µg/mL
same,MIC,[19]; [57],2 µg/mL
same,MIC,[19]; [58],64 µg/mL
same,MIC,[20]; [59],2 µg/mL
same,MIC,[20]; [60],4 µg/mL
